Source: patent US20250152627A1, “COMPOSITIONS AND METHODS FOR ENHANCING IMMUNE CELL FUNCTION USING MODIFIED CELLS WITH GLYCOCALYX EDITING ENZYMES” (Cornell University, priority 2021, published 2025)

How the values were obtained:
Assay type in all cases: cell-based
[1] = test system: 1E7 cells; test: Ring-SAIM glycocalyx material thickness, wild-type 1E7 cells; details: wild-type 1E7 cells, 1,000 ng/mL doxycycline induction; TD139 at 10 μm
Experimental: Silicon wafers with ˜1900 nm thermal oxide (Addison Engineering) were diced into 7 mm by 7 mm chips, and the oxide layer thickness for each chip was measured with a FilMetrics F50-EXR. Prior to use, the chips were then cleaned with 1:1 methanol and hydrochloric acid for 15 minutes, followed by 1 minutes in a plasma cleaner (Harrick Plasma, PDC-001). The chips were incubated with 4% (v/v) (3-mercaptopropyl)trimethoxysilane in absolute ethanol for 30 minutes at room temperature. After washing with absolute ethanol, the chips were subsequently incubated with 4 mM 4-maleimidobutyric acid N-hydroxysuccinimide ester in absolute ethanol for 30 minutes and rinsed with PBS. 50 μg/mL human plasma fibronectin in PBS was incubated with the functionalized chips overnight at 4° C. for conjugation. Cells were seeded onto the chips at 2×10^4 cm^−2 in full culture medium with varying doxycycline concentrations and incubated for 24 hours. Cells expressing different length of Muc1 were labelled with GFP nanobody conjugated to Alexa Fluor 647 in MCF10A growth media for 10 minutes at 37° C. Cells were labelled with MemGlow dye or CellBrite Steady 550 in serum-free, phenol red-free DMEM/F12 for 10 minutes at 37° C. Sample were then rinsed 3× in PBS, inverted into a 35 mm glass-bottom imaging dish containing imaging buffer (MemGlow dye or CellBrite dye: serum-free, phenol red-free DMEM/F12, Alexa Fluor 647-conjugated GFP nanobody: phenol red-free DMEM/F12 supplemented with 5% horse serum, 20 ng/mL EGF, […], 500 ng/mL hydrocortisone, 100 ng/mL cholera toxin and 1× penicillin/streptomycin) and imaged at 37° C. […]
(§1) Scanning angle interference microscopy (SAIM) was conducted on a custom circle-scanning microscope.^40 The core of the setup was an inverted fluorescence microscope (Ti-E, Nikon). […] Fluorescence emission was collected with a quad band filter cube and single band filters (TRF89901-EMv2, Chroma) mounted in a motorized filter wheel (Sutter). […]

[2] = test system: cell surface Muc1; test: Fluorescence recovery after photobleaching (FRAP) of Muc1-GFP; details: 1E7 GCNT1 OE with 10 μM recombinant human galectin-1
Experimental: FRAP experiments were performed by using a Zeiss i880 confocal microscope with 63×N.A. 1.4 Oil immersion lens. Five pre-bleached images were firstly taken and photobleaching was performed with 488 nm laser for about 10 seconds to bleach a target area of 2.55 μm×2.55 μm. 1E7 clone (n=11) and 1E7 GCNT1 overexpression (n=10) were used to measure mobile fraction of Muc1-GFP. 10 μM recombinant human galectin-1 was incubated with 1E7 GCNT1 cells for 10 minutes at 37° C. (n=9). Intensity profiles were corrected by normalizing to the time-course decay of GFP signal in non-bleached area by using MATLAB code from Advanced Imaging Center (https://www.mathworks.com/matlabcentral/fileexchange/47327-frap-zip)

[3] = test system: 1E7 cells overexpressing GCNT1; test: Ring-SAIM glycocalyx material thickness, GCNT1 overexpressing 1E7 cells; details: 1E7 cells overexpressing GCNT1, treatment with recombinant galectin
Experimental: Silicon wafers with ˜1900 nm thermal oxide (Addison Engineering) were diced into 7 mm by 7 mm chips, and the oxide layer thickness for each chip was measured with a FilMetrics F50-EXR. Prior to use, the chips were then cleaned with 1:1 methanol and hydrochloric acid for 15 minutes, followed by 1 minutes in a plasma cleaner (Harrick Plasma, PDC-001). The chips were incubated with 4% (v/v) (3-mercaptopropyl)trimethoxysilane in absolute ethanol for 30 minutes at room temperature. After washing with absolute ethanol, the chips were subsequently incubated with 4 mM 4-maleimidobutyric acid N-hydroxysuccinimide ester in absolute ethanol for 30 minutes and rinsed with PBS. 50 μg/mL human plasma fibronectin in PBS was incubated with the functionalized chips overnight at 4° C. for conjugation. Cells were seeded onto the chips at 2×10^4 cm^−2 in full culture medium with varying doxycycline concentrations and incubated for 24 hours. […]
as §1

Molecule | change of the material thickness of the glycocalyx [1] | effect on mobility and mobile fraction of cell surface Muc1 [2] | decrease of glycocalyx thickness compared to untreated cells [3] [nm]
OC[C@H]1O[C@@H](S[C@@H]2O[C@H](CO)[C@H](O)[C@H](n3cc(-c4cccc(F)c4)nn3)[C@H]2O)[C@H](O)[C@@H](n2cc(-c3cccc(F)c3)nn2)[C@H]1O [TD139] | did not significantly change |  | 
recombinant galectin-1: recombinant human galectin-1 (LGALS1) expressed in E. coli | did not significantly change | does not significantly affect | 19.4
recombinant galectin-3: recombinant human galectin-3 (LGALS3) expressed in E. coli | did not significantly change |  | 9.5
